From patent US10231453B2, “5-substituted imidazole derivatives” (BAYER CROPSCIENCE AKTIENGESELLSCHAFT, priority 2015, dated 2019) come the findings set out here.

Where two headings read alike, the source gives them in different places. Marks after values point to notes of the source that are not given here.

Data set [1] is described as follows: Measurement of LogP values by HPLC on reversed phase columns (EEC directive 79/831 Annex V.A8). The following applies: for chromatographic logP: method [a]: LC-UV, acidic range, 0.1% formic acid in water and acetonitrile as eluent, Table 1. It is filed as physicochemical. On the procedure:
Measurement of Log P values was performed as outlined above.

Data set [2] relates to Puccinia recondita. Put plainly: In vivo preventive test on Puccinia recondita (brown rust on wheat), Examples C and R3. The following applies: preventive spray, evaluated 11 days after inoculation; for pest or weed control at 500 ppm / pest or weed control at 100 ppm: Puccinia recondita, 264 h.
Data set [3] relates to Septoria tritici. Put plainly: In vivo preventive test on Septoria tritici (leaf spot on wheat), Examples E, Q3 and R5. The following applies: Zymoseptoria tritici, 576 h, preventive spray, evaluated 24 days after inoculation.
Data set [4] deals with Sphaerotheca fuliginea. Put plainly: In vivo preventive test on Sphaerotheca fuliginea (powdery mildew on cucurbits), Examples F and R6. The following applies: Podosphaera fuliginea, 360 h, preventive spray, evaluated 15 days after inoculation.
Data set [5] deals with Uromyces appendiculatus. Put plainly: In vivo preventive test on Uromyces appendiculatus (bean rust), Examples G and R7. The following applies: 264 h, preventive spray, evaluated 11 days after inoculation.
Where [6] appears, read: 500 ppm of active ingredient, wheat, read-out: efficacy.
The mark [7] stands for this setting: 500 ppm of active ingredient, gherkin, read-out: efficacy.
Setting [8] is: 500 ppm of active ingredient, bean, read-out: efficacy.
Where [9] appears, read: Example R3, wheat, 100 ppm, read-out: Efficacy in %.
Setting [10] is: Example R3, wheat, 500 ppm, read-out: Efficacy in %.
[11] abbreviates: Example R5, wheat, read-out: Efficacy in %.
The mark [12] stands for this setting: Example R5, wheat, 500 ppm, read-out: Efficacy in %.
Where [13] appears, read: Example R6, gherkin, read-out: Efficacy in %.
[14] abbreviates: Example R6, gherkin, 500 ppm, read-out: Efficacy in %.
Where [15] appears, read: Example R7, bean, read-out: Efficacy in %.
[16] abbreviates: Example R7, bean, 500 ppm, read-out: Efficacy in %.

As to `N#Cc1cncn1CC(O)(Cc1ccncc1Br)C1(Cl)CC1` (racemic) [Example I-46], the LogP in data set [1] was 1.94^[a].
The same measure, in the same setting: for `N#Cc1cncn1CC(O)(Cc1ccc(Oc2ccc(Cl)cc2)cc1Cl)C1(Cl)CC1` (racemic) [Example I-53] the value was 4.54^[a]; for `O=C(Cc1ccccc1F)c1cncn1CC(O)(Cc1ccccc1F)C1(Cl)CC1` (racemic) [Example I-134], 3.60^[a].
Regarding `OC(Cc1ccc(Cl)cc1F)(Cn1cnc(Br)c1)C1(Cl)CC1` (racemic) [drawing 98], the Efficacy in % is reported as 0% in data set [2] (Example R3, wheat, 100 ppm) and 94% in data set [2] (Example R3, wheat, 500 ppm).
For `N#Cc1cn(CC(O)(Cc2ccc(Cl)cc2F)C2(Cl)CC2)cn1` (racemic) [drawing 100] the same measures were 81% and 94%.
For `OC(Cc1ccc(Cl)cc1F)(Cn1cnc(Cl)c1)C1(Cl)CC1` (racemic) [drawing 102] the same measures were 0% and 67%.
As to `OC(Cc1ccc(Cl)cc1F)(Cn1cncc1Cl)C1(Cl)CC1` (single isomer, unassigned) [Example I-113], in data set [1], the LogP is 2.54^[a].
The same measure, in the same setting: in the case of `N#Cc1cncn1CC(O)(Cc1ccccc1F)C1(Cl)CC1` (single isomer, unassigned) [Example I-132] it was 2.59^[a]; in that of `N#Cc1cncn1CC(O)(Cc1ccccc1F)C1(Cl)CC1` (single isomer, unassigned) [Example I-133], 2.59^[a].
In the case of `OC(Cc1ccccc1Cl)(Cn1cncc1-c1ccccc1)C1(Cl)CC1` (centres unmarked) [Example I-09], the pest or weed control at 500 ppm in data set [3] (setting [6]) lay in the range of 70 to 79%; in data set [4] (setting [7]), 90 to 100%; in data set [5] (setting [8]), 90 to 100%.
Turning to `N#Cc1cncn1CC(O)(C(F)c1ccccc1F)C1(Cl)CC1` (centres unmarked) [Example I-31], the pest or weed control at 500 ppm in data set [2] (setting [6]), in data set [3] (setting [6]), in data set [4] (setting [7]) and in data set [5] (setting [8]) was 90 to 100% each time.
Take `N#Cc1cncn1CC(O)(Cc1ccc(Cl)cc1Cl)C1(Cl)CC1` (centres unmarked) [Example I-52]: the pest or weed control at 500 ppm in data set [2] (setting [6]) lay in the range of 80 to 89%; in data set [3] (setting [6]), 90 to 100%; in data set [4] (setting [7]) it was 90 to 100%; in data set [5] (setting [8]), 90 to 100%.
As to `N#Cc1cncn1CC(O)(Cc1cc(Cl)nc(Cl)c1)C1(Cl)CC1` (centres unmarked) [Example I-61], the pest or weed control at 500 ppm in data set [2] (setting [6]) lay in the range of 70 to 79%; in data set [3] (setting [6]), 90 to 100%; in data set [4] (setting [7]), 90 to 100%; in data set [5] (setting [8]), 90 to 100%.
As a reminder, the chromatographic logP is a lipophilicity value derived from retention on a column. In turn, `N#Cc1cncn1CC(O)(Cc1ccc(-c2ccccc2)cc1)C1(Cl)CC1` (centres unmarked) [Example I-63] gave a chromatographic logP in data set [1] of 3.68.
Regarding `N#Cc1cncn1CC(O)(Cc1ccccc1Cl)C1CCC1` (centres unmarked) [Example I-81], the pest or weed control at 500 ppm in data set [2] (setting [6]), in data set [3] (setting [6]), in data set [4] (setting [7]) and in data set [5] (setting [8]) was 90 to 100% throughout.
As to `CC(C)(C)CC(O)(Cc1ccccc1Cl)Cn1cncc1C#N` (centres unmarked) [Example I-83], the chromatographic logP in data set [1] is 3.55.
Turning to `CC(C)(C)CC(O)(Cc1ccc(Cl)cc1)Cn1cncc1C#N` (centres unmarked) [Example I-86], in data set [1], the chromatographic logP turned out to be 3.37.
Same read-out and setting: in the case of `N#Cc1cncn1CC(O)(Cc1ccc(F)c(F)c1F)C1(F)CC1` (centres unmarked) [Example I-93] it was 2.52; in that of `N#Cc1cncn1CC(O)(Cc1cccc(Cl)c1F)C1(F)CC1` (centres unmarked) [Example I-94], 2.68.
For the compound `N#Cc1cncn1CC(O)(Cc1ccc(Cl)cc1F)C1CC1` (centres unmarked) [Example I-115], the pest or weed control at 500 ppm in data set [2] (setting [6]), in data set [3] (setting [6]), in data set [4] (setting [7]) and in data set [5] (setting [8]) was 90 to 100% each time.
With `N#Cc1cncn1CC(O)(Cc1ccc(F)cc1F)C1CCC1` (centres unmarked) [Example I-127], the pest or weed control at 500 ppm lay in the range of 80 to 89% in data set [2] (setting [6]), 90 to 100% in data set [3] (setting [6]), 90 to 100% in data set [4] (setting [7]) and 90 to 100% in data set [5] (setting [8]).
As to `OC(Cc1ccccc1Cl)(Cn1cnc(Br)c1)C1(Cl)CC1` (centres unmarked) [drawing 87], the pest or weed control at 100 ppm in data set [2] (setting [9]) amounted to 75%. For the same compound, the pest or weed control at 500 ppm in data set [2] (setting [10]) was determined as 81%.
The like results for `Cc1cn(CC(O)(Cc2ccccc2Cl)C2(Cl)CC2)cn1` (centres unmarked) [drawing 89] were, in that order, 29% and 86%.
For `N#Cc1cn(CC(O)(Cc2ccccc2Cl)C2(Cl)CC2)cn1` (centres unmarked) [drawing 91] the same measures were 0% and 83%.
Turning to `C#Cc1cn(CC(O)(Cc2ccccc2F)C2(Cl)CC2)cn1` (centres unmarked) [drawing 93], in data set [2] (setting [9]), the pest or weed control at 100 ppm turned out to be 0%. In data set [2] (setting [10]), the pest or weed control at 500 ppm was 13%.
The like results for `OC(Cc1ccccc1F)(Cn1cnc(Cl)c1)C1(Cl)CC1` (centres unmarked) [drawing 95] were, in that order, 0% and 33%.
With `OC(Cc1ccccc1F)(Cn1ccnc1Cl)C1(Cl)CC1` (centres unmarked) [drawing 96], the pest or weed control at 100 ppm in data set [2] (setting [9]) was determined as 0%. Moreover, the pest or weed control at 500 ppm in data set [2] (setting [10]) turned out to be 0%.
On to `N#Cc1cn(CC(O)(Cc2ccccc2F)C2(Cl)CC2)cn1` (centres unmarked) [drawing 104], for which the pest or weed control at 100 ppm in data set [2] (setting [9]) came out at 11%. Further, the pest or weed control at 500 ppm in data set [2] (setting [10]) was 78%.
Consider `OC(Cc1ccccc1Cl)(Cn1cnc(Br)c1)C1(Cl)CC1` (centres unmarked) [drawing 123], for which the pest or weed control at 100 ppm in data set [3] (setting [11]) turned out to be 75%. In addition, the pest or weed control at 500 ppm in data set [3] (setting [12]) is 83%.
For `Cc1cn(CC(O)(Cc2ccccc2Cl)C2(Cl)CC2)cn1` (centres unmarked) [drawing 125] the same measures were 17% and 33%.
For the compound `N#Cc1cn(CC(O)(Cc2ccccc2Cl)C2(Cl)CC2)cn1` (centres unmarked) [drawing 127], the pest or weed control at 100 ppm in data set [3] (setting [11]) worked out at 44%. Moreover, the pest or weed control at 500 ppm in data set [3] (setting [12]) was 78%.
On to `C#Cc1cn(CC(O)(Cc2ccccc2F)C2(Cl)CC2)cn1` (centres unmarked) [drawing 129], for which the pest or weed control at 100 ppm in data set [3] (setting [11]) amounted to 63%. The pest or weed control at 500 ppm in data set [3] (setting [12]) worked out at 63%.
With `OC(Cc1ccccc1F)(Cn1cnc(Cl)c1)C1(Cl)CC1` (centres unmarked) [drawing 131], the pest or weed control at 100 ppm in data set [3] (setting [11]) amounted to 0%. The pest or weed control at 500 ppm in data set [3] (setting [12]) turned out to be 93%.
For `OC(Cc1ccccc1F)(Cn1ccnc1Cl)C1(Cl)CC1` (centres unmarked) [drawing 132] the same measures were 20% and 96%.
For `N#Cc1cn(CC(O)(Cc2ccccc2F)C2(Cl)CC2)cn1` (centres unmarked) [drawing 140] the same measures were 14% and 86%.
On to `OC(Cc1ccccc1Cl)(Cn1cnc(Br)c1)C1(Cl)CC1` (centres unmarked) [drawing 142], for which the pest or weed control at 100 ppm in data set [4] (setting [13]) turned out to be 20%. Also, the pest or weed control at 500 ppm in data set [4] (setting [14]) is 30%.
For `Cc1cn(CC(O)(Cc2ccccc2Cl)C2(Cl)CC2)cn1` (centres unmarked) [drawing 144] the same measures were 0% and 30%.
For `C#Cc1cn(CC(O)(Cc2ccccc2F)C2(Cl)CC2)cn1` (centres unmarked) [drawing 146] the same measures were 0% and 60%.
The like results for `OC(Cc1ccccc1F)(Cn1cnc(Cl)c1)C1(Cl)CC1` (centres unmarked) [drawing 148] were, in that order, 60% and 98%.
For the compound `OC(Cc1ccccc1F)(Cn1ccnc1Cl)C1(Cl)CC1` (centres unmarked) [drawing 149], the pest or weed control at 100 ppm in data set [4] (setting [13]) was found to be 0%. In data set [4] (setting [14]), the pest or weed control at 500 ppm came out at 78%.
For `N#Cc1cn(CC(O)(Cc2ccccc2F)C2(Cl)CC2)cn1` (centres unmarked) [drawing 157] the same measures were 95% and 95%.
Turning to `OC(Cc1ccccc1Cl)(Cn1cnc(Br)c1)C1(Cl)CC1` (centres unmarked) [drawing 159], in data set [5] (setting [15]), the pest or weed control at 100 ppm was found to be 56%. Also, the pest or weed control at 500 ppm in data set [5] (setting [16]) was 47%.
On to `Cc1cn(CC(O)(Cc2ccccc2Cl)C2(Cl)CC2)cn1` (centres unmarked) [drawing 161], for which the pest or weed control at 100 ppm in data set [5] (setting [15]) was determined as 0%. The pest or weed control at 500 ppm in data set [5] (setting [16]) was 100%.
The like results for `N#Cc1cn(CC(O)(Cc2ccccc2Cl)C2(Cl)CC2)cn1` (centres unmarked) [drawing 163] were, in that order, 25% and 50%.
Take `C#Cc1cn(CC(O)(Cc2ccccc2F)C2(Cl)CC2)cn1` (centres unmarked) [drawing 165]: the pest or weed control at 100 ppm in data set [5] (setting [15]) is 0%. Further, in data set [5] (setting [16]), the pest or weed control at 500 ppm amounted to 0%.
With `OC(Cc1ccccc1F)(Cn1cnc(Cl)c1)C1(Cl)CC1` (centres unmarked) [drawing 167], the pest or weed control at 100 ppm in data set [5] (setting [15]) came to 0%. The pest or weed control at 500 ppm in data set [5] (setting [16]) was determined as 0%.
In the case of `OC(Cc1ccccc1F)(Cn1ccnc1Cl)C1(Cl)CC1` (centres unmarked) [drawing 168], the pest or weed control at 100 ppm in data set [5] (setting [15]) came to 0%. In addition, in data set [5] (setting [16]), the pest or weed control at 500 ppm came to 0%.
Turning to `N#Cc1cn(CC(O)(Cc2ccccc2F)C2(Cl)CC2)cn1` (centres unmarked) [drawing 176], the pest or weed control at 100 ppm in data set [5] (setting [15]) amounted to 25%. Further, the pest or weed control at 500 ppm in data set [5] (setting [16]) was determined as 56%.
